According to ChEMBL document CHEMBL4342407, “Thieno[2,3-d]pyrimidine as a promising scaffold in medicinal chemistry: Recent advances” (Bioorg Med Chem, 2019):

Key:
MCF7 [1] = experiment: Antiproliferative activity against human MCF7 by MTT assay; assay type: functional, cell-based
HepG2 [2] = experiment: Antiproliferative activity against human HepG2 cells by MTT assay; assay type: functional, cell-based
Rattus norvegicus [3] = experiment: Antiinflammatory activity in Sprague-Dawley rat assessed as protection against carrageenan-induced edema at 40 mg/kg, po pretreated for 1 hr followed by carrageenan challenge and measured after 3 hrs by mercury plethysmometer relative to control; assay type: functional
[4] = Ulcerogenic activity in Wistar albino rat assessed as ulcer index at 250 mg/kg, ip pretreated for 1 hr followed by pylorus ligation and measured at 4 hrs post ligation; assay type: toxicity, organism-based; details: in vivo
Rattus norvegicus [5] = experiment: Anti-ulcer activity in Wistar albino rat assessed as reduction in pylorus ligation induced ulcer at 250 mg/kg, ip pretreated for 1 hr followed by pylorus ligation and measured at 4 hrs post ligation; assay type: functional
Candida albicans = experiment: […] activity against Candida albicans assessed as zone inhibition at 500 ug/ml by cup plate agar diffusion method; assay type: functional
ECa-109 cell line = experiment: Antiproliferative activity against human EC109 at 50 ug/ml after 48 hrs by MTT assay; assay type: functional; details: ECa-109, 48 h
HepG2 [6] = experiment: Antiproliferative activity against human HepG2 at 50 ug/ml after 48 hrs by MTT assay; assay type: functional; details: HepG2, 48 h
MGC-803 = experiment: Antiproliferative activity against human MGC803 at 50 ug/ml after 48 hrs by MTT assay; assay type: functional; details: MGC-803, 48 h
Bacillus subtilis = experiment: Antibacterial activity against Bacillus subtilis assessed as zone inhibition at 500 ug/ml by cup plate agar diffusion method; assay type: functional; details: read-out: IZ
Staphylococcus aureus = experiment: Antibacterial activity against Staphylococcus aureus assessed as zone inhibition at 500 ug/ml by cup plate agar diffusion method; assay type: functional; details: read-out: IZ
Escherichia coli = experiment: Antibacterial activity against Escherichia coli assessed as zone inhibition at 500 ug/ml by cup plate agar diffusion method; assay type: functional; details: read-out: IZ
Pseudomonas aeruginosa = experiment: Antibacterial activity against Pseudomonas aeruginosa assessed as zone inhibition at 500 ug/ml by cup plate agar diffusion method; assay type: functional; details: read-out: IZ
MCF7 [7] = experiment: Antiproliferative activity against human MCF7 after 24 hrs by MTT assay; assay type: functional, cell-based; details: MCF7, 24 h
HeLa = experiment: Antiproliferative activity against human HeLa after 24 hrs by MTT assay; assay type: functional, cell-based
Rattus norvegicus [8] = experiment: Antiinflammatory activity in po dosed Wistar rat assessed as reduction in carrageenan-induced paw edema pretreated for 1 hr followed by carrageenan challenge and measured over 2 to 4 hrs post carrageenan challenge by plethysmography; assay type: functional
Rattus norvegicus [9] = experiment: Antiinflammatory activity in Wistar rat assessed as inhibition of cotton pellet-induced granuloma at 75 mg/kg, po administered daily for 7 days and measured on day 8 relative to control; assay type: functional
Rattus norvegicus [10] = experiment: Antiinflammatory activity in Wistar rat model of Freund's adjuvant-induced arthritis assessed as inhibition of arthritis by measuring reduction in paw volume at 75 mg/kg, po administered once daily for 8 days starting from day 7 post Freund's adjuvant treatment and measured after 18 days by mercury plethysmography relative to control; assay type: functional
Mus musculus [11] = experiment: Antiinflammatory activity in Swiss mouse assessed as inhibition of TPA-induced ear edema at 1 mg/ear applied topically and measured 4 hrs post-TPA challenge relative to control; assay type: functional
HepG2 [12] = experiment: Antiproliferative activity against human HepG2 after 24 hrs by MTT assay; assay type: functional, cell-based; details: HepG2, 24 h
HEp-2 = experiment: Antiproliferative activity against human Hep2 after 24 hrs by MTT assay; assay type: functional, cell-based; details: HEp-2, 24 h
PC-3 = experiment: Antiproliferative activity against human PC3 after 24 hrs by MTT assay; assay type: functional, cell-based; details: PC-3, 24 h
Mus musculus [13] = experiment: Analgesic activity in Swiss albino mouse assessed as protection against acetic acid-induced writhing at 15 mg/kg, po pretreated for 30 mins followed by acetic acid challenge and measured after 20 mins relative to control; assay type: functional
[14] = Ulcerogenic activity in Sprague-Dawley rat assessed as ulcer index at 20 mg/kg, ip pretreated followed by pylorus ligation and measured at 4 hrs post ligation; assay type: toxicity, organism-based; details: in vivo

FC(F)(F)c1nc(NCc2ccc(Cl)cc2)c2c3c(sc2n1)CCC3
IC50 (MCF7 [1]): 13.8 µM
IC50 (HepG2 [2]): 8.63 µM

CC(=C(C#N)C(=O)NN)[C@H]1CC[C@H]2[C@@H]3CC=C4CC(O)CC[C@]4(C)[C@H]3CC[C@]12C (some centres not stated)
Activity (Rattus norvegicus [3]): 90%
UI [4]: 2.11
inhibition in vivo at 250 mg/kg (Rattus norvegicus [5]): 41.4%

NYSTATIN
inhibition zone (IZ) (Candida albicans): 20.8 mm

CCc1cc2c(=O)n(/N=C/c3ccccc3)c(C)nc2s1
inhibition at 50 µg/mL (ECa-109 cell line): 51.4%
inhibition at 50 µg/mL (HepG2 [6]): 57%
inhibition at 50 µg/mL (MGC-803): 74.6%

C[C@]12CC[C@H]3[C@@H](CC=C4CC(O)CC[C@@]43C)[C@@H]1CC[C@@H]2c1csc(N)c1-c1nnc(S)n1-c1ccccc1 (some centres not stated)
Activity (Rattus norvegicus [3]): 96%
UI [4]: 1.29
inhibition in vivo at 250 mg/kg (Rattus norvegicus [5]): 64.2%

C[C@]12CC[C@H]3[C@@H](CC=C4CC(O)CC[C@@]43C)[C@@H]1CC[C@@H]2c1csc(N)c1C(=O)NNC(=S)Nc1ccccc1 (some centres not stated)
Activity (Rattus norvegicus [3]): 81%
UI [4]: 2.11
inhibition in vivo at 250 mg/kg (Rattus norvegicus [5]): 41.4%

c1ccc2c(c1)N=C(c1cnccn1)CC(c1cc3cncnc3s1)S2 (configuration not stated)
zone of inhibition at 500 µg/mL (Bacillus subtilis): 16.2 mm
zone of inhibition at 500 µg/mL (Staphylococcus aureus): 15.7 mm
zone of inhibition at 500 µg/mL (Escherichia coli): 13.6 mm
zone of inhibition at 500 µg/mL (Pseudomonas aeruginosa): 13.4 mm
zone of inhibition at 500 µg/mL (Candida albicans; read-out: IZ): 10.8 mm

Nc1c(C(=O)Nc2ccc(I)cc2)sc2nc(N3CCOCC3)nc(-c3ccccc3)c12
IC50 (MCF7 [7]): 42.8 µM
IC50 (HeLa): 60.8 µM

CSC1=[N+](N)C(c2ccccc2)c2c(sc3c2CCCC3)N1.[I-] (configuration not stated)
ED50 (Rattus norvegicus [8]): 72.5 mg/kg
inhibition in vivo at 75 mg/kg (Rattus norvegicus [9]): 29.9%
inhibition in vivo at 75 mg/kg (Rattus norvegicus [10]): 10%
inhibition (INH) (Mus musculus [11]): 20.8%

COc1ccc(NC(=O)c2sc3nc(N4CCOCC4)nc(-c4ccccc4)c3c2N)cc1
IC50 (MCF7 [7]): 27.8 µM
IC50 (HeLa): 61.9 µM

CCOP(=O)(OCC)C(Nn1c(C)nc2sc(CC)cc2c1=O)c1ccc([N+](=O)[O-])cc1 (configuration not stated)
inhibition at 50 µg/mL (ECa-109 cell line): 54%
inhibition at 50 µg/mL (HepG2 [6]): 61.1%
inhibition at 50 µg/mL (MGC-803): 59.8%

Nc1c(C(=O)Nc2ccc(Cl)cc2)sc2nc(N3CCOCC3)nc(-c3ccccc3)c12
IC50 (MCF7 [7]): 18.9 µM
IC50 (HeLa): 50 µM

CN1C(C(=O)Nc2ccccn2)=C(O)c2ccccc2S1(=O)=O [PIROXICAM]
ED50 (Rattus norvegicus [8]): 7.8 mg/kg
inhibition in vivo at 75 mg/kg (Rattus norvegicus [9]): 67.9%
inhibition in vivo at 75 mg/kg (Rattus norvegicus [10]): 51.6%
inhibition (INH) (Mus musculus [11]): 12.2%

C[C@]12CC[C@H]3[C@@H](CC=C4CC(O)CC[C@@]43C)[C@@H]1CC[C@@H]2c1csc(N)c1C(=O)NN (some centres not stated)
Activity (Rattus norvegicus [3]): 87%
UI [4]: 0.62
inhibition in vivo at 250 mg/kg (Rattus norvegicus [5]): 82.7%

COc1ccc(/C=C/C(=O)c2sc3nc(S)n(-c4ccccc4)c(=O)c3c2C)cc1
IC50 (HepG2 [12]): 32.8 µM
IC50 (HEp-2): 39.5 µM
IC50 (MCF7 [7]): 28.9 µM
IC50 (PC-3): 28.9 µM
IC50 (HeLa): 22.7 µM

CCOP(=O)(OCC)C(Nn1c(C)nc2sc(CC)cc2c1=O)c1ccccc1 (configuration not stated)
inhibition at 50 µg/mL (ECa-109 cell line): 66.3%
inhibition at 50 µg/mL (HepG2 [6]): 66%
inhibition at 50 µg/mL (MGC-803): 50.3%

Cc1c(C(=O)/C=C/c2cccs2)sc2nc(S)n(-c3ccccc3)c(=O)c12
IC50 (HepG2 [12]): 26.4 µM
IC50 (HEp-2): 25.7 µM
IC50 (MCF7 [7]): 24 µM
IC50 (PC-3): 18.4 µM
IC50 (HeLa): 15.4 µM

Fc1cccc(CNc2nc(C(F)(F)F)nc3sc4c(c23)CCC4)c1
IC50 (MCF7 [1]): 5.18 µM
IC50 (HepG2 [2]): 7.31 µM

FC(F)(F)c1nc(NCc2ccccc2)c2c3c(sc2n1)CCC3
IC50 (MCF7 [1]): 11.8 µM
IC50 (HepG2 [2]): 13.5 µM

Cc1c(C(=O)/C=C/c2cc(Br)cs2)sc2nc(S)n(-c3ccccc3)c(=O)c12
IC50 (HepG2 [12]): 30.1 µM
IC50 (HEp-2): 31.3 µM
IC50 (MCF7 [7]): 25.8 µM
IC50 (PC-3): 27.7 µM
IC50 (HeLa): 17.8 µM

Cc1ccccc1CNc1nc(C(F)(F)F)nc2sc3c(c12)CCC3
IC50 (MCF7 [1]): 83.6 µM
IC50 (HepG2 [2]): > 100 µM

CC(C)Cc1ccc(C(C)C(=O)O)cc1 (configuration not stated) [IBUPROFEN]
ED50 (Rattus norvegicus [8]): 19.7 mg/kg
inhibition in vivo at 75 mg/kg (Rattus norvegicus [9]): 44.6%
inhibition (INH) (Mus musculus [11]): 40.2%

CC(=O)NN1C(S)=Nc2sc3c(c2C1c1ccccc1)CCCC3 (configuration not stated)
ED50 (Rattus norvegicus [8]): 66.7 mg/kg
inhibition in vivo at 75 mg/kg (Rattus norvegicus [9]): 39.9%
inhibition in vivo at 75 mg/kg (Rattus norvegicus [10]): 28.9%
inhibition (INH) (Mus musculus [11]): 35.1%

C[C@]12CC[C@H]3[C@@H](CC=C4CC(O)CC[C@@]43C)[C@@H]1CC[C@@H]2C1=CSC2N=CN(N)C(=O)C12 (some centres not stated)
Activity (Rattus norvegicus [3]): 24%
UI [4]: 1.02
inhibition in vivo at 250 mg/kg (Rattus norvegicus [5]): 71.7%

Nc1c(C(=O)Nc2ccccc2)sc2nc(N3CCOCC3)nc(-c3ccccc3)c12
IC50 (MCF7 [7]): 52.6 µM
IC50 (HeLa): 40.7 µM

COc1ccccc1CNc1nc(C(F)(F)F)nc2sc3c(c12)CCC3
IC50 (MCF7 [1]): > 100 µM
IC50 (HepG2 [2]): > 100 µM

O=C(NN1C(S)=Nc2sc3c(c2C1c1ccccc1)CCCC3)c1ccccc1 (configuration not stated)
ED50 (Rattus norvegicus [8]): 62.7 mg/kg
inhibition in vivo at 75 mg/kg (Rattus norvegicus [9]): 41.8%
inhibition in vivo at 75 mg/kg (Rattus norvegicus [10]): 25.6%
inhibition (INH) (Mus musculus [11]): 57.9%

CC(=O)Oc1ccccc1C(=O)O [ASPIRIN]
ED50 (Rattus norvegicus [8]): 69.3 mg/kg
inhibition in vivo at 75 mg/kg (Rattus norvegicus [9]): 30.1%
inhibition in vivo at 75 mg/kg (Rattus norvegicus [10]): 40%
inhibition (INH) (Mus musculus [11]): 20.1%
Activity (Mus musculus [13]): 53%
UI [14]: 1.1 to 1.7

CC1(C)S[C@@H]2[C@H](NC(=O)[C@H](N)c3ccccc3)C(=O)N2[C@H]1C(=O)O [AMPICILLIN]
zone of inhibition at 500 µg/mL (Bacillus subtilis): 24 mm
zone of inhibition at 500 µg/mL (Staphylococcus aureus): 22 mm
zone of inhibition at 500 µg/mL (Escherichia coli): 25 mm
zone of inhibition at 500 µg/mL (Pseudomonas aeruginosa): 21 mm

CCc1cc2c(=O)n(NC(c3ccc([N+](=O)[O-])cc3)P(=O)(OC(C)C)OC(C)C)c(C)nc2s1 (configuration not stated)
inhibition at 50 µg/mL (ECa-109 cell line): 58.5%
inhibition at 50 µg/mL (HepG2 [6]): 58.1%
inhibition at 50 µg/mL (MGC-803): 84.3%

COc1cccc2c1C(=O)c1c(O)c3c(c(O)c1C2=O)C[C@@](O)(C(=O)CO)C[C@@H]3O[C@H]1C[C@H](N)[C@H](O)[C@H](C)O1 [DOXORUBICIN]
IC50 (HEp-2): 6.32 µM

CCc1cc2c(=O)n(NC(c3cccc([N+](=O)[O-])c3)P(=O)(OC(C)C)OC(C)C)c(C)nc2s1 (configuration not stated)
inhibition at 50 µg/mL (ECa-109 cell line): 45.3%
inhibition at 50 µg/mL (HepG2 [6]): 90.8%
inhibition at 50 µg/mL (MGC-803): 63.6%

COc1ccc(C2=NC3SC=C([C@H]4CC[C@H]5[C@@H]6CC=C7CC(O)CC[C@]7(C)[C@H]6CC[C@]45C)C3C(=O)N2N)cc1 (some centres not stated)
Activity (Rattus norvegicus [3]): 92%
UI [4]: 0.29
inhibition in vivo at 250 mg/kg (Rattus norvegicus [5]): 91.9%

CC(=O)O[C@H]1C(=O)[C@@]2(C)[C@H]([C@H](OC(=O)c3ccccc3)[C@]3(O)C[C@H](OC(=O)[C@H](O)[C@@H](NC(=O)c4ccccc4)c4ccccc4)C(C)=C1C3(C)C)[C@]1(OC(C)=O)CO[C@@H]1C[C@@H]2O [PACLITAXEL]
IC50 (MCF7 [7]): 40.4 µM
IC50 (HeLa): 45.8 µM

C[C@]12CC[C@H]3[C@@H](CC=C4C[C@H](O)CC[C@@]43C)[C@@H]1CC[C@@H]2c1csc(N)c1-c1nnc(SCC(=O)c2ccccc2)n1-c1ccccc1
Activity (Rattus norvegicus [3]): 99%
UI [4]: 0.83
inhibition in vivo at 250 mg/kg (Rattus norvegicus [5]): 76.9%
